Experimental data as given in article PMC11990301, “Lipidated DAPEG Polymers as a Non-Toxic Transfection Agent—Influence of Fatty Acid Side Chain on Transfection Efficacy” (Molecules, 2025).

Columns and labels:
[1] = Dynamic light scattering (DLS) particle size of compounds and compound-pmaxGFP complexes; format: physicochemical; conditions: 25 °C, n = 3; for hydrodynamic diameters, pMAXGFP (-) / PDI (polydispersity index), pMAXGFP (-): compound alone without plasmid, in water; for hydrodynamic diameters, pMAXGFP (-): 2.5 mg/mL as printed, 10 s runs, Litesizer DIA 500, mean ± SD; for PDI (polydispersity index), pMAXGFP (-) / PDI (polydispersity index), pMAXGFP (+) / hydrodynamic diameters, pMAXGFP (+): mean ± SD; for PDI (polydispersity index), pMAXGFP (+) / hydrodynamic diameters, pMAXGFP (+): compound-DNA plasmid complex, N/P 1.5/1, in water
Description: Dynamic light scattering (DLS) measurements were performed using the Litesizer DIA 500 (Anton Par, Ostfildern-Scharnhausen, Germany). The concentration of the compounds in water was 2.5 mg/mL, with the inclusion of a DNA plasmid to maintain a charge-to-ratio of 1.5/1 N/P. For system 1:1.5, the concentration of each compound was 0.61 µM; for 3:1–1.21 µM; for 9:1–3.64 µM. The DNA plasmid concentration remains constant and equal at 0.46 nM. The particle size series mode was used in a cuvette with a volume of […]. Each run was recorded at 25 °C for 10 s.

[2] = system: spheroids of HEK-293T cells; assay: Viability in 3D model, CellTiter Glo 3D (ATP); format: cell-based; conditions: HEK-293T spheroids, 24 h incubation, tested 0, 1, 2, 5, 10, 20 and 50 µM, CellTiter Glo 3D luminescence; n = 3
Description: (§1) The HEK-293T cell line was cultured using both 2D and 3D techniques. The non-adherent method of forming spheroids was used. Cells (750 cells per well) were seeded in a 96-well U-shaped plate BIOFLOAT (Sarstedt, Nümbrecht, Germany). The HEK-293T cells were cultured at 37 °C in 5% CO2 in Dulbecco’s modified Eagle medium (DMEM; high glucose) supplemented with 10% fetal bovine serum (FBS) and 1% penicillin–streptomycin solution containing 100 units of penicillin and 100 µg/mL of streptomycin. After three days of culturing, the spheroids were formed and ready for further experiments.
After culturing for 72 h, spheroids of HEK-293T cells were incubated with increasing amounts of the appropriate compounds (0, 1, 2, 5, 10, 20, and 50 µM) in the medium described above at 37 °C with 5% CO2. After 24 h, the plate was incubated at room temperature (RT) for 30 min, followed by the addition of 100 μL of CellTiter Glo 3D Cell Viability Assay reagent (Promega, Fitchburg, WI, USA). The plate was then covered from light and shaken for 30 min. Next, the contents of each well were transferred to a white flat bottom plate (Nunc A/S, Thermo Fisher, Odense, Denmark) and luminescence was read at 560 nm using the CLARIOstar (BMG Labtech, Ortenberg, Germany).

[3] = system: HEK-293T cell line (spheroids); assay: Transfection efficacy of GFP plasmid (pmaxGFP) in 3D model; format: cell-based; conditions: HEK-293T spheroids
Description: as §1
Cells were cultured for 72 h under the conditions described above. Mixtures of the selected compounds and pmaxGFP plasmid in N/P ratios (charge peptidomimetic/charge pmaxGFP) of 1.5, 3:1, and 9:1 were incubated for 30 min and used immediately. An appropriate control with plasmid was employed. To each well with spheroids, 10 µL of the mixture described above was added in triplicate up to 90 µL of the full medium. The plate was then incubated at 37 °C with 5% CO2 for 5 h, washed (3 × medium), and cultured for another 72 h. After this process, the cells were inspected under a fluorescent microscope (Olympus IX51 fluorescence microscope (Olympus, Tokyo, Japan)). The molar concentration of particular components was equal to, for system 1:1.5, the concentration of each compound at 0.61 µM; for 3:1–1.21 µM; for 9:1–3.64 µM. The DNA plasmid concentration remains constant and equal at 0.46 nM.

[4] = Complex stability assessment by UV spectra (Nanodrop); format: physicochemical; conditions: Nanodrop UV-Vis, time points 0, 0.5, 1, 2.5 and 5 h, transfection buffer and concentrations (Figure S2)
Description: The analysis of all obtained complexes was conducted using a Nanodrop 2000c UV-Vis spectrophotometer (Thermo Scientific, Waltham, MA, USA) at designated time points from 0 to 5 h (0, 0.5, 1, 2.5, and 5). The concentration of the individual components (DNA and the compound) was used as a reference. The concentration of the complexes remained constant in relation to the transfection experiments.

Substance | hydrodynamic diameters, pMAXGFP (-) [1] | PDI (polydispersity index), pMAXGFP (-) [1] | PDI (polydispersity index), pMAXGFP (+) [1] | hydrodynamic diameters, pMAXGFP (+) [1] | concentration up to which viability is not suppressed compared to non-treated cells (3D spheroids, ATP) [2] | average fluorescence of spheroids (GFP production), N/P ratio 1.5:1 ([3]; compound 0.61 µM, plasmid 0.46 nM, 5 h incubation then 72 h culture, mean, n = 3) [arbitrary units] | average fluorescence of spheroids (GFP production), N/P ratio 3:1 ([3]; compound 1.21 µM, plasmid 0.46 nM, 5 h incubation then 72 h culture, mean, n = 3) | transfection efficacy ranking (GFP fluorescence), N/P ratio 9:1 ([3]; compound 3.64 µM, plasmid 0.46 nM, 5 h incubation then 72 h culture) | transfection efficacy ranking across all N/P series (1.5:1, 3:1, 9:1) ([3]; pmaxGFP) | stability of compound and compound-DNA complex: change of UV spectra over time [4] | transfection efficacy ranking (GFP fluorescence), N/P ratio 1.5:1 ([3]; compound 0.61 µM, plasmid 0.46 nM, 5 h incubation then 72 h culture)
C2H3O-O2Oc-[Dap(GO2)]8-O2Oc-NH2 [compound 1] | 309,0 ± 56,2 nm | 25,5 ± 2,9% | 30,1 ± 1,7% | 5580,7 ± 321,2 nm | up to 5 µM | ~150 | around 200 arbitrary units | superior fluorescence |  |  | 
C4H7O-O2Oc-[Dap(GO2)]8-O2Oc-NH2 [compound 2] | 337,2 ± 28,6 nm | 27,8 ± 1,5% | 30,6 ± 2,5% | 4761,0 ± 190,1 nm |  |  |  |  |  |  | 
C6H11O-O2Oc-[Dap(GO2)]8-O2Oc-NH2 [compound 3] | 599,5 ± 80,8 nm | 23,5 ± 2,4% | 30,7 ± 2,6% | 3006,0 ± 133,9 nm |  |  |  |  |  |  | 
H-O2Oc-[Dap(GO2)]8-O2Oc-NH2 [1a, reference compound] | 329,1 ± 39,3 nm | 18,3 ± 1,5% | 29,9 ± 2,8% | 2235,3 ± 48,0 nm |  |  |  |  | lowest in each series |  | 
C8H15O-O2Oc-[Dap(GO2)]8-O2Oc-NH2 [compound 4] | 508,9 ± 62,2 nm | 24,4 ± 2,3% | 29,4 ± 2,5% | 3446,7 ± 208,5 nm |  |  |  |  |  | do not show significant changes over time | 

Second part, led by results:

hydrodynamic diameters, pMAXGFP (-) [1] | PDI (polydispersity index), pMAXGFP (-) [1] | PDI (polydispersity index), pMAXGFP (+) [1] | hydrodynamic diameters, pMAXGFP (+) [1] | Substance | concentration up to which viability is not suppressed compared to non-treated cells (3D spheroids, ATP) [2] | average fluorescence of spheroids (GFP production), N/P ratio 1.5:1 ([3]; compound 0.61 µM, plasmid 0.46 nM, 5 h incubation then 72 h culture, mean, n = 3) [arbitrary units] | average fluorescence of spheroids (GFP production), N/P ratio 3:1 ([3]; compound 1.21 µM, plasmid 0.46 nM, 5 h incubation then 72 h culture, mean, n = 3) | transfection efficacy ranking (GFP fluorescence), N/P ratio 9:1 ([3]; compound 3.64 µM, plasmid 0.46 nM, 5 h incubation then 72 h culture) | transfection efficacy ranking across all N/P series (1.5:1, 3:1, 9:1) ([3]; pmaxGFP) | stability of compound and compound-DNA complex: change of UV spectra over time [4] | transfection efficacy ranking (GFP fluorescence), N/P ratio 1.5:1 ([3]; compound 0.61 µM, plasmid 0.46 nM, 5 h incubation then 72 h culture)
373,5 ± 59,7 nm | 25,6 ± 3,2% | 21,2 ± 2,4% | 135,0 ± 3,2 nm | C14H27O-O2Oc-[Dap(GO2)]8-O2Oc-NH2 [compound 7] |  |  |  |  |  |  | 
240,6 ± 36,9 nm | 24,9 ± 2,2% | 34,3 ± 4,2% | 4605,7 ± 90,9 nm | C10H19O-O2Oc-[Dap(GO2)]8-O2Oc-NH2 [compound 5] |  |  |  |  |  |  | 
337,4 ± 17,7 nm | 23,2 ± 2,8% | 24,2 ± 1,6% | 283,7 ± 5,9 nm | C12H23O-O2Oc-[Dap(GO2)]8-O2Oc-NH2 [compound 6] |  |  |  |  |  |  | 
517,6 ± 63,3 nm | 24,8 ± 1,9% | 26,3 ± 2,9% | 308,7 ± 22,7 nm | C16H31O-O2Oc-[Dap(GO2)]8-O2Oc-NH2 [compound 8] |  |  |  |  |  |  | greatest fluorescence
